Data taken from patent US5658906A, “Cysteine protease and serine protease inhibitors” (Cephalon, Inc., priority 1996, dated 1997).

Experiments:
[1] = target: T1, α-chymotrypsin (Bos taurus, UniProt P00766); test: Inhibition of the serine protease α-chymotrypsin (Succ-Ala-Ala-Pro-Phe-AMC hydrolysis); assay type: biochemical; conditions: pH 7.5, 0.03 mM substrate
T1 construct: purchased Sigma Chem. Co. C-3142
Description: Additionally,because α-chymotrypsin is not a calcium sensitive enzyme and is constituitively active, following addition of inhibitor stocks to the 96 well plates, 100 ul of a 2 fold concentrated stock of enzyme in dilution buffer was first added and the reaction started by addition of 100 ul of a 2 fold concentrated stock of substrate in assay buffer. Substrate hydrolysis was monitored every 5 minutes up to 30 minutes using a Fluoroskan II ([…]).

[2] = target: T2, Calpain I (Homo sapiens, UniProt P07384); test: Inhibition and rate of inactivation of calpain I (Succ-Leu-Tyr-MNA hydrolysis); assay type: biochemical; conditions: mean of three or more independent analyses, corrected for substrate, k2 = kapp(1+[S]/Km), read-out: k2 (second order rate constant of inactivation), A = Calpain I
T2 construct: Calpain I was purified from human red blood cells; from tissue; host or cells: human red blood cells (packed, outdated)
T2 sequence (P07384 1-714): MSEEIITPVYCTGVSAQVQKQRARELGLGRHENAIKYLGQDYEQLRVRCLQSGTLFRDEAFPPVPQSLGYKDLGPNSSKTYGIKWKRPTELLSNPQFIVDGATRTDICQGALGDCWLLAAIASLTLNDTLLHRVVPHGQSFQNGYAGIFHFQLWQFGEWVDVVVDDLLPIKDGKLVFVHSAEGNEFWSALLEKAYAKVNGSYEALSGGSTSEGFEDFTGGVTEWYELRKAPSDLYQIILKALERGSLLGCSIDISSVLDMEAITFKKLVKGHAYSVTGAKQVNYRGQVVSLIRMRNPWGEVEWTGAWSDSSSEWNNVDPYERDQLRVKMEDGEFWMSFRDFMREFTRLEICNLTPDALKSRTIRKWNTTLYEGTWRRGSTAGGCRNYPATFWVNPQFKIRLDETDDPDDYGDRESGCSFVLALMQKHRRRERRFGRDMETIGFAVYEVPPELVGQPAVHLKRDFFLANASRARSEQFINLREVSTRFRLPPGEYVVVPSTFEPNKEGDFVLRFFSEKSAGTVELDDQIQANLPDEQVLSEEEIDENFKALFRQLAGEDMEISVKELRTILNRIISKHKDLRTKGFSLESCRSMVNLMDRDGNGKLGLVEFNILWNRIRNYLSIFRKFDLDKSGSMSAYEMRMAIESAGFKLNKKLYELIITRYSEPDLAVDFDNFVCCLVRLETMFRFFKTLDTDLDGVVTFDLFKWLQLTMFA
T2 sequence (P04632 1-268 partner): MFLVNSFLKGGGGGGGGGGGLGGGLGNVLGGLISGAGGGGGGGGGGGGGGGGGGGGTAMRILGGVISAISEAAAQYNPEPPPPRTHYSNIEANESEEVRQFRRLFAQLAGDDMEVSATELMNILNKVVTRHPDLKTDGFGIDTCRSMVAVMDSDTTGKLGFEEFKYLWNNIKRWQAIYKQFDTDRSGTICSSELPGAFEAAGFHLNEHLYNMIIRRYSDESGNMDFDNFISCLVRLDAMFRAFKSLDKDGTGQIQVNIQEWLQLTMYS

What does the source list for `CC(C)C[C@H](NC(=O)OCc1ccccc1)C(=O)N[C@@H](Cc1ccccc1)C(=O)COn1nnc2ccccc21` [Example 3, 1-[N-[N-Benzyloxycarbonyl-L-leucyl]-3S-4-phenyl-3-amino-2-oxobutyloxy]benzotriazole]?
inhibition at 10 µM [1]: 86%; kinact/KI [2]: 150000 M⁻¹ s⁻¹

With `CC[C@H](NC(=O)[C@H](CC(C)C)NC(=O)OCc1ccccc1)C(=O)COn1nnc2ccccc21` [Example 5, 1-[N-[N-Benzyloxycarbonyl-L-leucyl]-3S-3-amino-2-oxopentyloxy] benzotriazole] as the compound, how does the inhibition at 10 µM [1] read?
Its inhibition at 10 µM is 34%.

What about the kinact/KI [2] of the same compound?
The kinact/KI was 63000 M⁻¹ s⁻¹.

For `CC(C)C[C@H](NC(=O)OCc1ccccc1)C(=O)N[C@@H](Cc1ccccc1)C(=O)COn1nnc2cccnc21` [Example 6, 3-[N-[N-Benzyloxycarbonyl-L-leucyl]-3S-4-phenyl-3-amino-2-oxobutyloxy]-3H-triazolo[4,5-b]pyridine], which inhibition at 10 µM [1] is on record?
Its inhibition at 10 µM is 81%.

And the kinact/KI [2]?
The kinact/KI was 184000 M⁻¹ s⁻¹.

`CC(C)C[C@H](NC(=O)OCc1ccccc1)C(=O)N[C@@H](Cc1ccccc1)C(=O)COn1nnc2ccccc2c1=O` [Example 28, 1-[N-[N-Benzyloxycarbonyl-L-leucyl]-3S-4-phenyl-3-amino-2-oxobutyloxy]-3-benzotriazin-4-one] was tested. Which inhibition at 10 µM [1] did it give?
The inhibition at 10 µM was 82%.

What about the kinact/KI [2] of the same compound?
Its kinact/KI is 122000 M⁻¹ s⁻¹.
